What follows are compounds tested against T1, human GPR84 receptor (Homo sapiens, UniProt Q9NQS5) (assay: cAMP HTRF assay for identification of cellular GPR84 antagonists). Settings: CHO-K1 cells stably expressing human GPR84; Forskolin + agonist 6-OAU (EC80); average or median values.
T1 construct: frozen aliquots prepared by acCELLerate; host or cells: CHO-K1
T1 sequence (Q9NQS5 whole entry): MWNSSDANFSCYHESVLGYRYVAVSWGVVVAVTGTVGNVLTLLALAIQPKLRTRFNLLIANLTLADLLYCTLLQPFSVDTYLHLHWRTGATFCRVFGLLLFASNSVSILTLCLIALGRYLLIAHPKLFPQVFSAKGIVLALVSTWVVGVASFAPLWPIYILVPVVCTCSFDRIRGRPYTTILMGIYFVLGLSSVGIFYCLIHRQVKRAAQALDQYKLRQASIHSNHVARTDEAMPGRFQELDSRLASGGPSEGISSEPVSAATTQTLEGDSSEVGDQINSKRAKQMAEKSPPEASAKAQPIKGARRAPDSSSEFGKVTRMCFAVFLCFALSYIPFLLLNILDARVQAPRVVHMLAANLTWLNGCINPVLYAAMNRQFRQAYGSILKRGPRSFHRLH
Assay type: cell-based
Method in brief: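 Forskolin-stimulated CHO-K1 cells stably expressing human GPR84, agonist-suppressed cAMP measured by HTRF (665/620 ratio) after lysis. Compounds at 11 concentrations, 20 μM to 0.07 nM, duplicate; normalized to DMSO and no-agonist controls; IC50 by 4-parameter fit.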
In the case of C[C@@H]1Cc2oc(C(=O)NC[C@@H]3COCCO3)c(C(F)(F)F)c2-c2nn(CC3CCN(C(=O)C4(C)CC4)CC3)cc21 (single isomer, unassigned) [Example 299, (4R or 4S)-N-{[(2R)-1,4-dioxan-2-yl]methyl}-4-methyl-2-{[1-(1-methylcyclopropane-1-carbonyl)piperidin-4-yl]methyl}-8-(trifluoromethyl)-4,5-dihydro-2H-furo[2,3-g]indazole-7-carboxamide], the IC50 is reported as 0.024 µM. Cc1c(C(=O)NC[C@@H]2COCCO2)oc2c1-c1nn(C(=O)N(C)C)cc1C1(CC1)C2 [Example 154] was tested, and the IC50 was 0.27 µM. Compound Cc1cccc(Cn2cc3c(n2)-c2c(oc(C(=O)NCc4ncco4)c2C)CC3)n1 [Example 72, 8-methyl-2-[(6-methylpyridin-2-yl)methyl]-N-(1,3-oxazol-2-ylmethyl)-4,5-dihydro-2H-furo[2,3-g]indazole-7-carboxamide] has an IC50 of 0.24 µM. For Cn1ccc(CNC(=O)c2oc3c(c2C(F)(F)F)-c2nn(Cc4ccccn4)cc2CC3)n1 [Example 117, N-[(1-methyl-1H-pyrazol-3-yl)methyl]-2-(pyridin-2-ylmethyl)-8-(trifluoromethyl)-4,5-dihydro-2H-furo[2,3-g]indazole-7-carboxamide], the IC50 was 0.055 µM. In the case of Cc1c(C(=O)NC[C@@H]2COCCO2)oc2c1-c1nn(Cc3cccnc3)cc1CC2 [Example 45, N-[(2R)-1,4-dioxan-2-ylmethyl]-8-methyl-2-(pyridin-3-ylmethyl)-4,5-dihydro-2H-furo[2,3-g]indazole-7-carboxamide], the IC50 is reported as 0.029 µM. CC1CCC(CNC(=O)c2oc3c(c2C(F)(F)F)-c2nn(C[C@H]4COCCO4)cc2CC3)O1 (mixture of isomers) [Example 224, 2-{[(2S)-1,4-dioxan-2-yl]methyl}-N-{[(2±,5±)-5-methyloxolan-2-yl]methyl}-8-(trifluoromethyl)-4,5-dihydro-2H-furo[2,3-g]indazole-7-carboxamide] gave an IC50 of 0.018 µM. O=C(NC[C@H]1CC(F)(F)CO1)c1oc2c(c1C(F)(F)F)-c1nn(C[C@H]3COCCO3)cc1CC2 (single isomer, unassigned) [Example 222-1, N-{[(2R or 2S)-4,4-difluorooxolan-2-yl]methyl}-2-{[(2S)-1,4-dioxan-2-yl]methyl}-8-(trifluoromethyl)-4,5-dihydro-2H-furo[2,3-g]indazole-7-carboxamide] gave an IC50 of 0.012 µM. With Cc1c(C(=O)NCc2cc(C(C)C)on2)oc2c1-c1nn(Cc3ccccn3)cc1CC2 [Example 18, N-[(5-isopropyl-1,2-oxazol-3-yl)methyl]-8-methyl-2-(pyridin-2-ylmethyl)-4,5-dihydro-2H-furo[2,3-g]indazole-7-carboxamide] the IC50 was 0.097 µM. Cc1c(C(=O)NCC2CCCO2)oc2c1-c1nn(CC3COc4ncccc4O3)cc1CC2 (single isomer, unassigned) [Example 52-1] gave an IC50 of 0.095 µM. In the case of Cc1c(C(=O)NC[C@@H]2CCCO2)oc2c1-c1nn(CC3COC3)cc1CC2 [Example 91, 8-methyl-2-(oxetan-3-ylmethyl)-N-[(2S)-tetrahydrofuran-2-ylmethyl]-4,5-dihydro-2H-furo[2,3-g]indazole-7-carboxamide], the IC50 is reported as 0.064 µM. Work on O=C(NC[C@@H]1CCCO1)c1oc2c(c1C(F)(F)F)-c1nn(C[C@H]3COCCO3)cc1CC2 [Example 221, 2-{[(2S)-1,4-dioxan-2-yl]methyl}-N-{[(2S)-oxolan-2-yl]methyl}-8-(trifluoromethyl)-4,5-dihydro-2H-furo[2,3-g]indazole-7-carboxamide] yielded an IC50 of 0.008 µM. Work on CC1Cc2oc(C(=O)NC[C@@H]3COCCO3)c(C(F)(F)F)c2-c2nn(Cc3ccccn3)cc21 (mixture of isomers) [Example 250, (4±)-N-{[(2R)-1,4-dioxan-2-yl]methyl}-4-methyl-2-[(pyridin-2-yl)methyl]-8-(trifluoromethyl)-4,5-dihydro-2H-furo[2,3-g]indazole-7-carboxamide] yielded an IC50 of 0.017 µM. CCC(=O)C(=O)N1CCC(Cn2cc3c(n2)-c2c(oc(C(=O)NC[C@@H]4COCCO4)c2C(F)(F)F)C[C@H]3C)CC1 (single isomer, unassigned) [Example 296, (4R or 4S)-N-{[(2R)-1,4-dioxan-2-yl]methyl}-4-methyl-2-{[1-(2-oxobutanoyl)piperidin-4-yl]methyl}-8-(trifluoromethyl)-4,5-dihydro-2H-furo[2,3-g]indazole-7-carboxamide] gave an IC50 of 0.009 µM. Cc1c(C(=O)NCCN2CCN(c3ccc(C(F)(F)F)cn3)CC2)oc2c1-c1nn(Cc3ccccn3)cc1CC2 [Example 12, 8-methyl-2-(pyridin-2-ylmethyl)-N-(2-{4-[5-(trifluoromethyl)pyridin-2-yl]piperazin-1-yl}ethyl)-4,5-dihydro-2H-furo[2,3-g]indazole-7-carboxamide] gave an IC50 of 2.76 µM. Work on Cc1c(C(=O)NCc2cnoc2)oc2c1-c1nn(Cc3ccccn3)cc1CC2 [Example 24, 8-methyl-N-(1,2-oxazol-4-ylmethyl)-2-(pyridin-2-ylmethyl)-4,5-dihydro-2H-furo[2,3-g]indazole-7-carboxamide] yielded an IC50 of 6.56 µM. For O=C(NC[C@@H]1COCCO1)c1oc2c(c1C(F)(F)F)-c1nn(CC3CCN(CC4CC4)CC3)cc1CC2 [Example 310, 2-{[1-(cyclopropylmethyl)piperidin-4-yl]methyl}-N-{[(2R)-1,4-dioxan-2-yl]methyl}-8-(trifluoromethyl)-4,5-dihydro-2H-furo[2,3-g]indazole-7-carboxamide], the IC50 was 0.197 µM. Cc1ccc(Cn2cc3c(n2)-c2c(oc(C(=O)NC[C@@H]4CCCO4)c2C(F)(F)F)CC3C)nc1 (mixture of isomers) [Example 251, (4±)-4-methyl-2-[(5-methyl-2-pyridyl)methyl]-N-[[(2S)-tetrahydrofuran-2-yl]methyl]-8-(trifluoromethyl)-4,5-dihydrofuro[2,3-g]indazole-7-carboxamide] was tested, and the IC50 was 0.009 µM. With O=C(NC[C@@H]1CCCO1)c1oc2c(c1C(F)(F)F)-c1nn(CC3CCOCC3)cc1CC2 [Example 243, 2-[(oxan-4-yl)methyl]-N-{[(2S)-oxolan-2-yl]methyl}-8-(trifluoromethyl)-4,5-dihydro-2H-furo[2,3-g]indazole-7-carboxamide] the IC50 was 0.026 µM. With Cc1c(C(=O)NC[C@@H]2CCCO2)oc2c1-c1nn(Cc3ccccn3)cc1C(C)C2 (mixture of isomers) [Example 247, (4+)-4,8-dimethyl-N-{[(2S)-oxolan-2-yl]methyl}-2-[(pyridin-2-yl)methyl]-4,5-dihydro-2H-furo[2,3-g]indazole-7-carboxamide] the IC50 was 0.066 µM. C[C@@H]1Cc2oc(C(=O)NC[C@@H]3CCCO3)c(C(F)(F)F)c2-c2nn(CC3CCN(C(=O)C4(O)CC4)CC3)cc21 (single isomer, unassigned) [Example 293, (4R or 4S)-2-{[1-(1-hydroxycyclopropane-1-carbonyl)piperidin-4-yl]methyl}-4-methyl-N-{[(2S)-oxolan-2-yl]methyl}-8-(trifluoromethyl)-4,5-dihydro-2H-furo[2,3-g]indazole-7-carboxamide] gave an IC50 of 0.007 µM. Work on Cc1c(C(=O)NC[C@@H]2CCCO2)oc2c1-c1nn(Cc3ccncc3)cc1CC2 [Example 46, 8-methyl-2-(pyridin-4-ylmethyl)-N-[(2S)-tetrahydrofuran-2-ylmethyl]-4,5-dihydro-2H-furo[2,3-g]indazole-7-carboxamide] yielded an IC50 of 0.013 µM.
